Source: US9017956B2, “Use of the genes in the Hog, Ras and cAMP pathway for treatment of fungal infection” (Nutrex Technology Co., Ltd., priority 2009, dated 2015)
“Also recorded” adds a separate entry of the source.

Assays:
[1] = tested on: C. neoformans serotype A H99 strain and its deletion mutants; assay: Antifungal drug sensitivity test: serially diluted cells spotted on YPD agar containing the drug; assay type: cell-based, Cryptococcus neoformans; settings: for drug sensitivity of hog1Δ mutant compared to WT / drug sensitivity of pbs2Δ mutant compared to WT / drug sensitivity of skn7Δ mutant compared to WT / drug sensitivity of ssk1Δ mutant compared to WT / drug sensitivity of ssk2Δ mutant compared to WT / drug sensitivity of tco2Δ mutant compared to WT: YPD agar, 30° C., 72 h
Protocol: (§1) Each strain was incubated overnight at 30° C. in YPD medium, washed, serially diluted (1 to 10^4 dilutions) in dH2O, and spotted (3 μl) onto solid YPD medium containing indicated concentrations of stress-inducing agents or antifungal drugs as previously described in “Bahn Y S, Kojima K, Cox G M, Heitman J (2005) Mol Biol Cell 16: 2285-2300.” and “Bahn Y S, Kojima K, Cox G M, Heitman J (2006) Mol Biol Cell 17: 3122-3135”. To examine antifungal drug sensitivity, the cells were spotted on agar-solid YPD media containing amphotericin B (Sigma), fluconazole (Sigma), itraconazole (Sigma), ketoconazole (Sigma) and fludioxonil. Then spotted cells were incubated at 30° C. for 2-4 days and photographed.

[2] = tested on: C. neoformans serotype D strains JEC21 and B3501 and their deletion mutants; assay: as above; assay type: cell-based, Cryptococcus neoformans
Protocol: as §1

C[C@@H]1[C@H](O)[C@@H](C)/C=C/C=C/C=C/C=C/C=C/C=C/C=C/[C@H](O[C@@H]2O[C@H](C)[C@@H](O)[C@H](N)[C@@H]2O)C[C@@H]2O[C@](O)(C[C@@H](O)C[C@@H](O)[C@H](O)CC[C@@H](O)C[C@@H](O)CC(=O)O[C@H]1C)C[C@H](O)[C@H]2C(=O)O [amphotericin B]
drug sensitivity of aca1Δ mutant compared to WT ([1]; aca1Δ, H99 background): slightly higher AmpB susceptibility
drug sensitivity of cac1Δ mutant compared to WT ([1]; H99 background): hypersensitive
drug sensitivity of cac1Δ mutant compared to WT ([1]; H99 background, listed as AmpB): much higher AmpB-sensitivity
drug sensitivity of ena1Δ mutant ([1]; ena1Δ): did not show high sensitivity
drug sensitivity of ena1Δ nha1Δ double mutant ([1]; ena1Δ nha1Δ): considerably increased sensitivity
drug sensitivity of gpa1Δ mutant compared to WT ([1]; H99 background): hypersensitive
drug sensitivity of gpa1Δ mutant compared to WT ([1]; H99 background, listed as AmpB): much higher AmpB-sensitivity
drug sensitivity of hog1Δ cac1Δ double mutant ([1]; compared to single mutants): even more sensitive
drug sensitivity of hog1Δ pka1Δ double mutant ([1]; hog1Δ pka1Δ, compared to single mutants): even more sensitive
drug sensitivity of hog1Δ mutant compared to WT ([1]; H99 background): dramatic hypersensitivity
drug sensitivity of hsp12Δ mutant compared to WT ([1]; hsp12Δ, H99 background): slightly higher susceptibility
drug sensitivity of hsp122Δ mutant compared to WT ([1]; hsp122Δ, H99 background): slightly higher susceptibility
drug sensitivity of nha1Δ mutant ([1]; nha1Δ): did not show high sensitivity
drug sensitivity of pbs2Δ mutant compared to WT ([1]; H99 background): dramatic hypersensitivity
drug sensitivity of pka1Δ mutant compared to WT ([1]; H99 background): hypersensitive
drug sensitivity of pka1Δ mutant compared to WT ([1]; H99 background, listed as AmpB): increased susceptibility
drug sensitivity of ras1Δ aca1Δ double mutant ([1]; compared to each single mutant): hypersensitive
drug sensitivity of ras1Δ aca1Δ double mutant ([1]; compared to each single mutant, listed as AmpB): higher AmpB-sensitivity than each single mutant
drug sensitivity of ras1Δ cac1Δ double mutant ([1]; ras1Δ cac1Δ, compared to each single mutant): even higher AmpB susceptibility than each single mutant
drug sensitivity of ras1Δ mutant compared to WT ([1]; ras1Δ, H99 background): higher susceptibility
drug sensitivity of ras2Δ mutant compared to WT ([1]; ras2Δ, H99 background): slightly more sensitive
drug sensitivity of skn7Δ mutant compared to WT ([1]; H99 background): WT-levels of resistance
drug sensitivity of ssk1Δ mutant compared to WT ([1]; H99 background): dramatic hypersensitivity
drug sensitivity of ssk2Δ mutant compared to WT ([1]; H99 background): dramatic hypersensitivity
drug sensitivity of tco2Δ mutant compared to WT ([1]; H99 background): hypersensitivity
drug resistance of B3501 strain compared to JEC21 ([2]; B3501 (Hog1 constitutively phosphorylated)): higher resistance
drug sensitivity of JEC21 strain ([2]; JEC21 (Hog1 not constitutively phosphorylated), compared with ssk2Δ mutant in H99 background): hypersensitivity
effect of HOG1 mutation on drug sensitivity in JEC21 background ([2]; hog1Δ in JEC21): did not affect sensitivity
effect of PBS2 mutation on drug sensitivity in JEC21 background ([2]; pbs2Δ in JEC21): did not affect sensitivity
effect of SSK2 mutation on drug sensitivity in B3501 background ([2]; ssk2Δ in B3501): increased the amphotericin B sensitivity
effect of SSK2 mutation on drug sensitivity in JEC21 background ([2]; ssk2Δ in JEC21): did not affect sensitivity

OC(Cn1cncn1)(Cn1cncn1)c1ccc(F)cc1F [fluconazole]
drug sensitivity of cac1Δ mutant compared to WT ([1]; H99 background): nearly as resistant
drug sensitivity of gpa1Δ mutant compared to WT ([1]; H99 background): nearly as resistant
drug sensitivity of hog1Δ cac1Δ double mutant ([1]; compared to single mutants): hypersensitivity; also recorded: hypersensitive
drug sensitivity of hog1Δ mutant compared to WT ([1]; H99 background): hyper-resistance
drug sensitivity of pbs2Δ mutant compared to WT ([1]; H99 background): hyper-resistance
drug sensitivity of pka1Δ pka2Δ double mutant compared to WT ([1]; pka1Δ pka2Δ, H99 background): nearly as resistant
drug sensitivity of pka1Δ mutant compared to WT ([1]; H99 background): nearly as resistant
drug sensitivity of pka2Δ mutant compared to WT ([1]; pka2Δ, H99 background): nearly as resistant
drug sensitivity of skn7Δ mutant compared to WT ([1]; H99 background): higher resistance
drug sensitivity of ssk1Δ mutant compared to WT ([1]; H99 background): hyper-resistance
drug sensitivity of ssk2Δ mutant compared to WT ([1]; H99 background): hyper-resistance
drug sensitivity of tco2Δ mutant compared to WT ([1]; H99 background): higher resistance

CC(=O)N1CCN(c2ccc(OCC3COC(Cn4ccnc4)(c4ccc(Cl)cc4Cl)O3)cc2)CC1 (centres unmarked) [ketoconazole]
drug sensitivity of hog1Δ cac1Δ double mutant ([1]; compared to single mutants): hypersensitivity; also recorded: hypersensitive
drug sensitivity of hog1Δ mutant compared to WT ([1]; H99 background): hyper-resistance
drug sensitivity of pbs2Δ mutant compared to WT ([1]; H99 background): hyper-resistance
drug sensitivity of skn7Δ mutant compared to WT ([1]; H99 background): higher resistance
drug sensitivity of ssk1Δ mutant compared to WT ([1]; H99 background): hyper-resistance
drug sensitivity of ssk2Δ mutant compared to WT ([1]; H99 background): hyper-resistance
drug sensitivity of tco2Δ mutant compared to WT ([1]; H99 background): higher resistance
